Data as given in patent US10646488B2 (Araxes Pharma LLC, priority 2016, dated 2020).

Target: T1, KRAS G12C 1-169, his-tagged protein, GDP-loaded (Homo sapiens, UniProt P01116, G12C)
T1 construct: KRAS G12C 1-169, his-tagged protein, GDP-loaded
Experiment: Covalent binding (% modification) to KRAS G12C by mass spectrometry
Method: Test compounds were prepared as 10 mM stock solutions in DMSO (Fisher cat # BP-231-100). KRAS G12C 1-169, his-tagged protein, GDP-loaded was diluted to 2 μm in buffer (20 mM Hepes, 150 mM NaCl, 1 mM MgCl2). Compounds were tested for activity as follows:
Compounds were diluted to 50× final test concentration in DMSO in 96-well storage plates. Compound stock solutions were vortexed before use and observed carefully for any sign of precipitation. Dilutions were as follow: • For 100 μM final compound concentration, compounds were diluted to 5000 μM (5 μl 10 mM compound stock+5 μl DMSO and mixed well by pipetting. • For 30 μM final compound concentration, compounds were diluted to 1500 μM (3 μl 10 mM compound stock+17 μl DMSO) and mixed well by pipetting. • For 10 μM final compound concentration, compounds were diluted to 500 μM (2 μl 10 mM compound stock+38 μl DMSO) and mixed well by pipetting. 49 μl of the stock protein solution was added to each well of a 96-well PCR plate (Fisher cat #1423027). 1 μl of the diluted 50× compounds were added to appropriate wells in the PCR plate using 12-channel pipettor. Reactions were mixed carefully and thoroughly by pipetting up/down with a 200·1 multi-channel pipettor. […] 5 μl of 2% formic acid (Fisher cat # A117) in DI H2O was then added to each well followed by mixing with a pipette. The plate was then resealed with aluminum seal and stored on dry ice until analyzed as described below.
The above described assays were analyzed by mass spectrometry according to one of the following two procedures:
The MS instrument is set to positive polarity, 2 GHz resolution, and low mass (1700) mode and allowed to equilibrate for 30 minutes. The instrument is then calibrated, switched to acquisition mode and the appropriate method loaded.
After another 30 minute equilibration time, a blank batch (i.e., buffer) is run to ensure equipment is operating properly. The samples are thawed at 37° C. for 10 minutes, briefly centrifuged, and transfer to the bench top. Wells A1 and H12 are spiked with 1 uL 500 uM internal standard peptide, and the plates centrifuged at 2000×g for 5 minutes. The method is then run and masses of each individual well recorded.
The masses (for which integration data is desired) for each well are pasted into the platemap and exported from the analysis. Masses for the internal standards are exported as well. The data at 50 ppm is extracted for the +19 charge state, and identity of well A1 is assigned using the internal standard spike and integrated. Peak data is exported as a TOF list and the above steps are repeated individually, for the +20, 21, 22, 23, 24, and 25 charge states.
The masses and peak intensities of KRAS G12C protein species were measured using a Dionex RSLCnano system (Thermo Scientific) connected to a Q Exactive Plus mass spectrometer (Thermo Scientific).
[…] of sample was each loaded onto a Aeris™ 3.6 μm WIDEPORE C4 200 Å, LC Column 50×2.1 mm column maintained at 40° C. at a flow rate of 600 μl min^−1 with […] (0.1% formic acid in acetonitrile). The liquid chromatography conditions were 20% solvent B for 1 min, 20% to 60% solvent B for 1.5 min, 60% to 90% solvent for 0.5 min, 90% solvent B for 0.2 min, 90% to 20% solvent B for 0.2 min, and then equilibrated for 1.6 min before the following sample injection. The flow rate was maintained at 600 μl min^−1 throughout the sample analysis.
The mass spectrometer was operated in profile mode at a resolution of 17500, 5 microscans, using 50 msec max injection time and an AGC target of 1e6, and a full mass range from 800-1850 m/z was recorded. The HCD trapping gas was optimized for maximum sensitivity for intact proteins. The ionization method was electrospray ionization, which used a spray voltage of 4 kV, sheath gas flow set to 50 au, auxiliary gas flow set to 10 au and sweep gas flow set to 1 au. […]

[1] = covalent binding to KRAS G12C after a ten minute incubation period
[2] = covalent binding to KRAS G12C after a three minute incubation period

| SMILES | Binding % [1] | Binding % [2] |
| --- | --- | --- |
| C=CC(=O)N1CCN(c2nc(N3CC(N(C)C)C3)nc3c(F)c(-c4c(C)ccc5cn[nH]c45)c(Cl)cc23)C[C@H]1C [Compound 69, 1-((2R)-4-(6-chloro-2-(3-(dimethylamino)azetidin-1-yl)-8-fluoro-7-(6-methyl-1H-indazol-7-yl)quinazolin-4-yl)-2-methyl-piperazin-1-yl) prop-2-en-1-one] | +++ (+++ indicates binding activity greater than 90%) | – |
| C=CC(=O)N1C[C@H](C)N(c2nc(OCCN3CC(F)(F)C3)nc3c(F)c(-c4c(C)ccc5cn[nH]c45)c(Cl)cc23)C[C@H]1C (atropisomer, axis not shown) [Compound 128, 1-((2R,5S)-4-(6-chloro-2-(2-(3,3-difluoroazetidin-1-yl)ethoxy)-8-fluoro-7-((S)-6-methyl-1H-indazol-7-yl)quinazolin-4-yl)-2,5-dimethyl-piperazin-1-yl) prop-2-en-1-one] | – | + (+ indicates binding activity greater than 0% and up to 50%) |
| C=CC(=O)N1C[C@H](C)N(c2nc(N3CC4(CCN(C5CC5)CC4)C3)nc3c(F)c(-c4c(C)ccc5[nH]ncc45)c(Cl)cc23)C[C@H]1C [Compound 200, 1-((2R,5S)-4-(6-chloro-2-(7-cyclopropyl-2,7-diazaspiro[3.5]nonan-2-yl)-8-fluoro-7-(5-methyl-1H-indazol-4-yl)quinazolin-4-yl)-2,5-dimethyl-piperazin-1-yl) prop-2-en-1-one] | – | ++ (++ indicates binding activity from 50 to 90%) |
| C=CC(=O)N1C[C@@H](C)N(c2nc(N3CC(N(C)C)C3)nc3c(F)c(-c4c(O)cccc4F)c(Cl)cc23)C[C@H]1C [Compound 86, 1-((2R,5R)-4-(6-chloro-2-(3-(dimethylamino)azetidin-1-yl)-8-fluoro-7-(2-fluoro-6-hydroxyphenyl)quinazolin-4-yl)-2,5-dimethyl-piperazin-1-yl) prop-2-en-1-one] | – | + (+ indicates binding activity greater than 0% and up to 50%) |
| C=CC(=O)N1C[C@H](C)N(c2nc(OCCCN(C)C)nc3c(F)c(-c4cc(O)cc5ccccc45)c(C(F)(F)F)cc23)C[C@H]1C [Compound 210, 1-((2R,5S)-4-(2-(3-(dimethylamino)propoxy)-8-fluoro-7-(3-hydroxy-naphthalen-1-yl)-6-(trifluoromethyl)quinazolin-4-yl)-2,5-dimethyl-piperazin-1-yl) prop-2-en-1-one] | – | +++ (+++ indicates binding activity greater than 90%) |
| C=CC(=O)N1C[C@H](C)N(c2nc(OC3CCN(C(C)C)CC3)nc3c(F)c(-c4c(C)ccc5[nH]ncc45)c(Cl)cc23)C[C@H]1C [Compound 79, 1-((2R,5S)-4-(6-chloro-8-fluoro-2-((1-isopropyl-piperidin-4-yl)oxy)-7-(5-methyl-1H-indazol-4-yl)quinazolin-4-yl)-2,5-dimethyl-piperazin-1-yl) prop-2-en-1-one] | +++ (+++ indicates binding activity greater than 90%) | – |
| C=CC(=O)N1C[C@H](C)N(c2nc(OCCN3CCC(F)(F)C3)nc3c(F)c(-c4c(C)ccc5[nH]ncc45)c(Cl)cc23)C[C@H]1C [Compound 209, 1-((2R,5S)-4-(6-chloro-2-(2-(3,3-difluoropyrrolidin-1-yl)ethoxy)-8-fluoro-7-(5-methyl-1H-indazol-4-yl)quinazolin-4-yl)-2,5-dimethyl-piperazin-1-yl) prop-2-en-1-one] | – | +++ (+++ indicates binding activity greater than 90%) |
| C=CC(=O)N1C[C@H](C)N(c2nc(N3CC4(CCCN(C5CC5)C4)C3)nc3c(F)c(-c4c(O)cccc4F)c(Cl)cc23)C[C@H]1C [Compound 195, 1-((2R,5S)-4-(6-chloro-2-(6-cyclopropyl-2,6-diazaspiro[3.5]nonan-2-yl)-8-fluoro-7-(2-fluoro-6-hydroxyphenyl)quinazolin-4-yl)-2,5-dimethyl-piperazin-1-yl) prop-2-en-1-one] | – | + (+ indicates binding activity greater than 0% and up to 50%) |
